Data on 38 compounds can be found in patent publication US7250410B2, “Cyclic nucleotide phosphodiesterase inhibitors, preparation and uses thereof” (Via Pharmaceuticals, Inc., priority 2001, dated 2007).

One experiment concerns the target PDE4. Briefly: Inhibition of PDE4, radioenzymatic phosphodiesterase assay. As to conditions: Table 1, formula (III); 1 μM cyclic AMP. The format is biochemical, bovine. The protocol:
A 3 g segment of bovine aortic media cut into pieces with scissors was homogenized with an ultra-turrax then a potter glass/glass homogenizer in 7 volumes by weight of buffer A containing a protease inhibitor cocktail (20 mM Tris-HCl, 0.25 M saccharose, 2 mM magnesium acetate, 1 mM dithiothreitol, 5 mM EGTA, 2000 U/ml aprotinin, 10 mg/l leupeptin and 10 mg/l soya trypsic inhibitor). The homogenizate was centrifuged at 105,000 g for 1 hour. […] The column was washed until there was no detectable absorption at 280 nm, then eluted with a linear gradient of NaCl (0–0.5 M) in buffer B. 3-ml fractions were collected and enzyme activity was determined under the conditions described hereinafter to localize the different enzymes PDE1, PDE3, PDE4 and PDE5, which were aliquoted and frozen at −80° C.
The nucleoside formed was separated from the nucleotides by anion exchange chromatography. Nucleoside radioactivity was determined by liquid scintillation counting.
As to `COc1cc2c(cc1OC)C(c1ccc(I)cc1)=NN(C)C(=O)C2` [IIIah, 1-(4-iodophenyl)-7,8-dimethoxy-3-methyl-3,5-dihydro-4H-2,3-benzodiazepin-4-one], the IC50 (as a rule, the point on the concentration scale where inhibition reaches its midpoint) worked out at 3.1 µM.

In the case of `COc1cc2c(cc1OC)C(c1ccc(-c3ccc(C)cc3)cc1)=NN(C)C(=O)C2` [IIIas, 7,8-dimethoxy-3-methyl-1-[4-(4-methylphenyl)phenyl]-3,5-dihydro-4H-2,3-benzodiazepin-4-one], the IC50 amounted to 2.9 µM.

Turning to `COc1cc2c(cc1OC)C(c1ccc(-c3cccc(C(C)=O)c3)cc1)=NN(C)C(=O)C2` [IIIak, 1-[4-(3-acetylphenyl)phenyl]-7,8-dimethoxy-3-methyl-3,5-dihydro-4H-2,3-benzodiazepin-4-one], the half-inhibitory concentration (IC50) is 1.8 µM.

Staying with this experiment, now noted: Table 1, formula (III); compound at 10 μM.
On to `CCCN1N=C(c2ccccc2)c2cc(OC)c(OC)cc2CC1=O` [IIIaf, 7,8-dimethoxy-1-phenyl-3-n-propyl-3,5-dihydro-4H-2,3-benzodiazepin-4-one], for which the “PDE4 percentage inhibition at 10 μM” value was determined as 30%.

As to `CCCCCCCCCCCCN1N=C(c2ccccc2)c2cc(OC)c(OC)cc2CC1=O` [IIIad, 3-n-dodecyl-7,8-dimethoxy-1-phenyl-3,5-dihydro-4H-2,3-benzodiazepin-4-one], the “PDE4 percentage inhibition at 10 μM” value is 3.9%.

The experiment is the same for the next values; noted with them: Table 2, formula (XXII); 1 μM cyclic AMP.
In the case of `COc1cc2c(cc1OC)C(c1cccc(Br)c1)=NCC(=O)N2` [XXIIak, 5-(3-bromophenyl)-7,8-dimethoxy-1,3-dihydro-2H-1,4-benzodiazepin-2-one], the IC50 is 13 µM.

Consider `COc1cc2c(cc1OC)C(c1ccccc1)=NC(c1ccccc1)C(=O)N2` (centres unmarked) [XXIIaz, 7,8-dimethoxy-3,5-diphenyl-1,3-dihydro-2H-1,4-benzodiazepin-2-one], for which the IC50 was 9.5 µM.

Staying with this experiment, now noted: Table 2, formula (XXII); compound at 10 μM.
Take `O=C1CN=C(c2cccc(C(F)(F)F)c2)c2cc(I)ccc2N1` [XXIIac, 7-iodo-5-[3-(trifluoromethyl)phenyl]-1,3-dihydro-2H-1,4-benzodiazepin-2-one]: the “PDE4 percentage inhibition at 10 μM” value came to 35%.

As to `CCOc1cc2c(cc1OC)NC(=O)CN=C2c1ccccc1` [XXIIbc, 5-phenyl-7-ethoxy-8-methoxy-1,3-dihydro-2H-1,4-benzodiazepin-2-one], the “PDE4 percentage inhibition at 10 μM” value turned out to be 10%.

As to `COc1ccc2c(c1)C(c1cccc(C(F)(F)F)c1)=NCC(=O)N2` [XXIIae, 7-methoxy-5-[3-(trifluoromethyl)phenyl]-1,3-dihydro-2H-1,4-benzodiazepin-2-one], the “PDE4 percentage inhibition at 10 μM” value was found to be 21%.

For `O=C1CN=C(c2ccccc2)c2cc3c(cc2N1)OCCO3` [XXIIah, 10-phenyl-2,3,6,8-tetrahydro-7H-[1,4]dioxino[2,3-h][1,4]benzodiazepin-7-one], the “PDE4 percentage inhibition at 10 μM” value is recorded as 21.2%.

Turning to `O=C1CN=C(c2ccc(Br)cc2)c2ccc(Br)cc2N1` [XXIIab, 8-bromo-5-(4-bromophenyl)-1,3-dihydro-2H-1,4-benzodiazepin-2-one], the “PDE4 percentage inhibition at 10 μM” value is 10%.

`COc1ccc2c(c1)C(c1ccccc1)=NCC(=O)N2` [XXIIao, 7-methoxy-5-phenyl-1,3-dihydro-2H-1,4-benzodiazepin-2-one]: the “PDE4 percentage inhibition at 10 μM” value is 11.5%.

For the compound `COc1cc2c(cc1OC)C(c1ccccc1Br)=NCC(=O)N2` [XXIIal, 5-(2-bromophenyl)-7,8-dimethoxy-1,3-dihydro-2H-1,4-benzodiazepin-2-one], the “PDE4 percentage inhibition at 10 μM” value is given as 23.9%.

The same experiment, now with this note: Table 3, formula (II); 1 μM cyclic AMP.
For the compound `CCOc1cc2c(cc1OC)C(c1ccccc1)=NC(Cc1ccccc1C#N)C(=O)N2C` (centres unmarked) [IIdg, 2-[(8-ethoxy-7-methoxy-1-methyl-2-oxo-5-phenyl-2,3-dihydro-1H-1,4-benzodiazepin-3-yl)methyl]benzonitrile], the IC50 came to 1.1 µM.

As to `CCOc1cc2c(cc1OCC)N(CC)C(=O)C(Cc1ccccc1)N=C2c1ccccc1` (centres unmarked) [IIcv, 3-benzyl-7,8-diethoxy-1-ethyl-5-phenyl-1,3-dihydro-2H-1,4-benzodiazepin-2-one], half-maximal inhibition (IC50) required 3.1 µM. Compared with the last compound, the IC50 is about 2.8-fold higher.

For the compound `COc1cc2c(cc1OC)N(C)C(=O)CN=C2c1ccc2[nH]ccc2c1` [IIan, 5-(5-indolyl)-7,8-dimethoxy-1-methyl-1,3-dihydro-1,4-benzodiazepin-2-one], the IC50 was 3.6 µM.

Consider `CCN1C(=O)C(Cc2ccccc2)N=C(c2ccccc2)c2cc(OC)c(OC)cc21` (centres unmarked) [IIcq, 3-benzyl-1-ethyl-7,8-dimethoxy-5-phenyl-1,3-dihydro-2H-1,4-benzodiazepin-2-one], for which the IC50 came to 7.4 µM.

`CCN1C(=O)C(Cc2ccccc2Cl)N=C(c2ccccc2)c2cc(OC)c(OC)cc21` (centres unmarked) [IIcy, 3-(2-chlorobenzyl)-1-ethyl-7,8-dimethoxy-5-phenyl-1,3-dihydro-2H-1,4-benzodiazepin-2-one]: the IC50 stood at 2.8 µM.

With `CCN1C(=O)C(Cc2cccc(Br)c2)N=C(c2ccccc2)c2cc(OC)c(OC)cc21` (centres unmarked) [IIcj, 3-(3-bromobenzyl)-1-ethyl-7,8-dimethoxy-5-phenyl-1,3-dihydro-2H-1,4-benzodiazepin-2-one], the IC50 is 3.76 µM. The IC50 values of the last two compounds are within 1.5-fold of each other.

Take `CCOc1cc2c(cc1OC)C(c1ccccc1)=NC(c1ccccc1)C(=O)N2CC` (centres unmarked) [IIdk, 3,5-diphenyl-8-ethoxy-1-ethyl-7-methoxy-1,3-dihydro-2H-1,4-benzodiazepin-2-one]: half-maximal inhibition (IC50) was put at 1.1 µM.

Take `CCN1C(=O)C(C(O)(c2ccccc2)c2ccccc2)N=C(c2ccccc2)c2cc(OC)c(OC)cc21` (centres unmarked) [IIby, 7,8-dimethoxy-3-(diphenylhydroxymethyl)-1-ethyl-5-phenyl-1,3-dihydro-2H-1,4-benzodiazepin-2-one]: the IC50 was 8.2 µM.

For the compound `COc1ccc(C2=NCC(=O)N(C)c3cc(OC)c(OC)cc32)cc1` [IIaw, 7,8-dimethoxy-5-(4-methoxyphenyl)-1-methyl-1,3-dihydro-1,4-benzodiazepin-2-one], the IC50 was determined as 10 µM. The IC50 values of the last two compounds are within 1.5-fold of each other.

The compound `COc1cc2c(cc1OC)N(C)C(=O)CN=C2/C=C/c1ccccc1` [IIas, 7,8-dimethoxy-1-methyl-5-[(E)-2-phenylethenyl]-1,3-dihydro-2H-1,4-benzodiazepin-2-one] displayed an IC50 of 8.4 µM.

The compound `CCOc1cc2c(cc1OCC)N(C)C(=O)CN=C2c1ccccc1` [IIbf, 7,8-diethoxy-1-methyl-5-phenyl-1,3-dihydro-2H-1,4-benzodiazepin-2-one] came in with an IC50 of 0.86 µM.

Staying with this experiment, now noted: Table 3, formula (II); compound at 10 μM.
As to `COc1cc2c(cc1OC)N(C)C(=O)CN=C2c1ccco1` [IIah, 5-(2-furyl)-7,8-dimethoxy-1-methyl-1,3-dihydro-1,4-benzodiazepin-2-one], the “PDE4 percentage inhibition at 10 μM” value is given as 36%.

As to `COc1ccc2cc(C3=NCC(=O)N(C)c4cc(OC)c(OC)cc43)ccc2c1` [IIap, 7,8-dimethoxy-5-(6-methoxy-2-naphthyl)-1-methyl-1,3-dihydro-1,4-benzodiazepin-2-one], the “PDE4 percentage inhibition at 10 μM” value is 18%.

Take `COc1cc2c(cc1OC)C(c1ccccc1)=NC(c1ccccc1CNC(C)=O)C(=O)N2` (centres unmarked) [IIcf, N-[2-(7,8-dimethoxy-2-oxo-5-phenyl-2,3-dihydro-1H-1,4-benzodiazepin-3-yl)benzyl]acetamide]: the “PDE4 percentage inhibition at 10 μM” value is 21%.

As to `COc1cc2c(cc1OC)N(C)C(=O)CN=C2c1ccccc1OC` [IIam, 7,8-dimethoxy-5-(2-methoxyphenyl)-1-methyl-1,3-dihydro-1,4-benzodiazepin-2-one], the “PDE4 percentage inhibition at 10 μM” value is listed as 20%.

With `COc1cc2c(cc1OC)N(C)C(=O)CN=C2c1ccc(C(C)=O)cc1` [IIai, 5-(4-acetylphenyl)-7,8-dimethoxy-1-methyl-1,3-dihydro-1,4-benzodiazepin-2-one], the “PDE4 percentage inhibition at 10 μM” value stood at 39%.

Turning to `COc1cc2c(cc1OC)N(CCO)C(=O)CN=C2c1ccccc1` [IIcx, 7,8-dimethoxy-1-(2-hydroxyethyl)-5-phenyl-1,3-dihydro-2H-1,4-benzodiazepin-2-one], the “PDE4 percentage inhibition at 10 μM” value is reported as 9.9%.

Take `CCN1C(=O)CN=C(c2ccccc2)c2cc(OC)c(OC)cc21` [IIbd, 1-ethyl-7,8-dimethoxy-5-phenyl-1,3-dihydro-2H-1,4-benzodiazepin-2-one]: the “PDE4 percentage inhibition at 10 μM” value is 34.3%.

Turning to `COc1cc2c(cc1OC)N(C)C(=O)CN=C2c1ccncc1` [IIae, 7,8-dimethoxy-1-methyl-5-(4-pyridyl)-1,3-dihydro-2H-1,4-benzodiazepin-2-one], the “PDE4 percentage inhibition at 10 μM” value was determined as 3.4%.

Regarding `CCN1C(=O)C(C(Cc2ccc(Br)cc2)c2ccc(Br)cc2)N=C(c2ccccc2)c2cc(OC)c(OC)cc21` (centres unmarked) [IIde, 3-[1,2-bis(4-bromophenyl)ethyl]-1-ethyl-7,8-dimethoxy-5-phenyl-1,3-dihydro-2H-1,4-benzodiazepin-2-one], the “PDE4 percentage inhibition at 10 μM” value is given as 0%.

As to `COc1cc2c(cc1OC)N(C)C(=O)[C@H](Cc1ccccc1)N=C2c1ccccc1` [IIdj, (S)-3-benzyl-7,8-dimethoxy-1-methyl-5-phenyl-1,3-dihydro-2H-1,4-benzodiazepin-2-one], the “PDE4 percentage inhibition at 10 μM” value was 48.3%.

Consider `COc1ccc(C2=NCC(=O)N(C)c3cc(OC)c(OC)cc32)cc1OC` [IIab, 7,8-dimethoxy-5-(3,4-dimethoxyphenyl)-1-methyl-1,3-dihydro-1,4-benzodiazepin-2-one], for which the “PDE4 percentage inhibition at 10 μM” value is given as 38%.

As to `CCN1C(=O)C(CC(N)=O)N=C(c2ccccc2)c2cc(OC)c(OC)cc21` (centres unmarked) [IIcw, 2-(1-ethyl-7,8-dimethoxy-2-oxo-5-phenyl-2,3-dihydro-1H-1,4-benzodiazepin-3-yl)acetamide], the “PDE4 percentage inhibition at 10 μM” value is on record as 9.4%.

Turning to `COc1cc2c(cc1OC)N(C)C(=O)CN=C2c1ccc(F)cc1` [IIad, 7,8-dimethoxy-5-(4-fluorophenyl)-1-methyl-1,3-dihydro-2H-1,4-benzodiazepin-2-one], the “PDE4 percentage inhibition at 10 μM” value worked out at 23%.
